Results published in publication PMC4585259 (Frontiers in Pharmacology, 2015).
Like-named read-outs stand apart in the source and are kept apart here.

Molecular target: T1, rNav1.2 sodium channels (Rattus norvegicus, UniProt P04775)
T1 construct: host or cells: HEK-293
Assay: QPatch automated patch clamp, inhibition of sodium currents evoked by 5 Hz trains at three extracellular pH values
Format: cell-based
Details: for class of pH-dependence pattern (cluster analysis): Ward's method on 18 variables of affinity, reversibility, onset; for τoffset / τonset: concentration (lidocaine 300 μM, memantine 30 μM)
Protocol: HEK-293 cells stably expressing rNav1.2 sodium channels were obtained from NeuroSearch (Ballerup, Denmark). The cells were grown in Dulbecco's modified Eagle medium supplemented with 10% FBS. Prior to use, the cells were trypsinized and subsequently kept in suspension in the QPatch cell storage facility in CHO-S- SFM-II medium.
Composition of the extracellular solution was: (in mM): 140 NaCl, 3 KCl, 1 CaCl2 1 MgCl2, 0.1 CdCl2, 20 TEA-Cl, 5 HEPES, adjusted to pH 7.3, Osmolality: 320 mOsm. […] Drugs were synthesized in Gedeon Richter Plc. […] The full list of drugs, with their three-letter codes, concentration, as well as their main therapeutic indication and main mechanism of action are shown in Table 1. […] The choice of concentrations used in this study may seem unusually high.
Data were sampled at a frequency of 25 kHz and filtered at 5 kHz. Junction potential was calculated to be −11 mV and was corrected for. […] Cells having membrane resistance < 500 MOhm, series resistance > 9 MOhm, or capacitance > 22 pF were excluded from analysis. The experimental protocol was also identical to the one used in our previous study: sodium channels were activated by 5 Hz trains of 5 depolarizations (−90 to −10 mV) repeated in every 20 s. In this study, however, the same control–drug-application–washout sequence was repeated four times: at neutral, acidic, alkalic, and again neutral pH. The peak amplitudes of sodium currents throughout the whole experiment are shown plotted against time in Figure 1 and Supplementary Figure 1.
Initial analysis, including subtraction of leak and capacitive artifacts, as well as peak detection were done in the QPatch software. […] All experiments were normalized to the amplitude of the current evoked by the first depolarization of the last train under control conditions. […] For all four drug applications in an experiment, apparent affinity, onset and offset time constants as well as reversibility values were calculated. […] (This method is equivalent to applying the Lineweaver-Burk plot method using a single concentration.) Reversibility values were calculated from control (c), inhibited (i), and wash-out (w) amplitudes as follows: Reversibility = (w-i)/(c-i). Reversibility values should not be regarded as experimental platform-independent properties of compounds. […] However, reversibility values are a valuable source of information regarding physicochemical differences between individual drugs, or between effects of the same drug under different extracellular pH conditions. Onset and offset time constants were determined by single exponential fitting to individual experiments. For neutral pH numerical data were given as the average of the data from the first and the last drug applications. Thin black lines on Figure 1 and Supplemental Figure 1 show the average of five fitted exponentials, (not the exponential fitted to the averaged normalized amplitudes). The numerical values of apparent affinity, onset and offset time constants and reversibility are shown in Table 2, and their relative position is illustrated in Figure 2. Affinity and time constant values were logarithmically transformed for statistics, therefore we show their geometric mean. For recovery data no transformation was done, and we show arithmetic mean values. Significance values were calculated using paired, two-tailed Student's t-test based on five pairs of apparent affinity (log transform), time constant (log transform), or reversibility values obtained from five individual experiments. Because of the large number of comparisons in this study, we accepted p < 0.01 as significant. Cluster analysis was done using Ward's minimum variance method, with Euclidean distance measure. Data were normalized by subtracting the mean (after logarithmic transformation in the case of apparent affinity and time constants), and dividing by the standard deviation.

[1] = pH 6.0, single concentration (lidocaine 300 μM, memantine 30 μM), geometric mean of 5, read-out: apparent affinity
[2] = pH 7.3, single concentration (lidocaine 300 μM, memantine 30 μM), geometric mean of 5, read-out: apparent affinity
[3] = pH 8.6, single concentration (lidocaine 300 μM, memantine 30 μM), geometric mean of 5, read-out: apparent affinity
[4] = pH=6.0, cc 100 mM, read-out: Apparent Affinity
[5] = pH=7.3, cc 100 mM, read-out: Apparent Affinity
[6] = pH=8.6, cc 100 mM, read-out: Apparent Affinity

T1 sequence (P04775 whole entry): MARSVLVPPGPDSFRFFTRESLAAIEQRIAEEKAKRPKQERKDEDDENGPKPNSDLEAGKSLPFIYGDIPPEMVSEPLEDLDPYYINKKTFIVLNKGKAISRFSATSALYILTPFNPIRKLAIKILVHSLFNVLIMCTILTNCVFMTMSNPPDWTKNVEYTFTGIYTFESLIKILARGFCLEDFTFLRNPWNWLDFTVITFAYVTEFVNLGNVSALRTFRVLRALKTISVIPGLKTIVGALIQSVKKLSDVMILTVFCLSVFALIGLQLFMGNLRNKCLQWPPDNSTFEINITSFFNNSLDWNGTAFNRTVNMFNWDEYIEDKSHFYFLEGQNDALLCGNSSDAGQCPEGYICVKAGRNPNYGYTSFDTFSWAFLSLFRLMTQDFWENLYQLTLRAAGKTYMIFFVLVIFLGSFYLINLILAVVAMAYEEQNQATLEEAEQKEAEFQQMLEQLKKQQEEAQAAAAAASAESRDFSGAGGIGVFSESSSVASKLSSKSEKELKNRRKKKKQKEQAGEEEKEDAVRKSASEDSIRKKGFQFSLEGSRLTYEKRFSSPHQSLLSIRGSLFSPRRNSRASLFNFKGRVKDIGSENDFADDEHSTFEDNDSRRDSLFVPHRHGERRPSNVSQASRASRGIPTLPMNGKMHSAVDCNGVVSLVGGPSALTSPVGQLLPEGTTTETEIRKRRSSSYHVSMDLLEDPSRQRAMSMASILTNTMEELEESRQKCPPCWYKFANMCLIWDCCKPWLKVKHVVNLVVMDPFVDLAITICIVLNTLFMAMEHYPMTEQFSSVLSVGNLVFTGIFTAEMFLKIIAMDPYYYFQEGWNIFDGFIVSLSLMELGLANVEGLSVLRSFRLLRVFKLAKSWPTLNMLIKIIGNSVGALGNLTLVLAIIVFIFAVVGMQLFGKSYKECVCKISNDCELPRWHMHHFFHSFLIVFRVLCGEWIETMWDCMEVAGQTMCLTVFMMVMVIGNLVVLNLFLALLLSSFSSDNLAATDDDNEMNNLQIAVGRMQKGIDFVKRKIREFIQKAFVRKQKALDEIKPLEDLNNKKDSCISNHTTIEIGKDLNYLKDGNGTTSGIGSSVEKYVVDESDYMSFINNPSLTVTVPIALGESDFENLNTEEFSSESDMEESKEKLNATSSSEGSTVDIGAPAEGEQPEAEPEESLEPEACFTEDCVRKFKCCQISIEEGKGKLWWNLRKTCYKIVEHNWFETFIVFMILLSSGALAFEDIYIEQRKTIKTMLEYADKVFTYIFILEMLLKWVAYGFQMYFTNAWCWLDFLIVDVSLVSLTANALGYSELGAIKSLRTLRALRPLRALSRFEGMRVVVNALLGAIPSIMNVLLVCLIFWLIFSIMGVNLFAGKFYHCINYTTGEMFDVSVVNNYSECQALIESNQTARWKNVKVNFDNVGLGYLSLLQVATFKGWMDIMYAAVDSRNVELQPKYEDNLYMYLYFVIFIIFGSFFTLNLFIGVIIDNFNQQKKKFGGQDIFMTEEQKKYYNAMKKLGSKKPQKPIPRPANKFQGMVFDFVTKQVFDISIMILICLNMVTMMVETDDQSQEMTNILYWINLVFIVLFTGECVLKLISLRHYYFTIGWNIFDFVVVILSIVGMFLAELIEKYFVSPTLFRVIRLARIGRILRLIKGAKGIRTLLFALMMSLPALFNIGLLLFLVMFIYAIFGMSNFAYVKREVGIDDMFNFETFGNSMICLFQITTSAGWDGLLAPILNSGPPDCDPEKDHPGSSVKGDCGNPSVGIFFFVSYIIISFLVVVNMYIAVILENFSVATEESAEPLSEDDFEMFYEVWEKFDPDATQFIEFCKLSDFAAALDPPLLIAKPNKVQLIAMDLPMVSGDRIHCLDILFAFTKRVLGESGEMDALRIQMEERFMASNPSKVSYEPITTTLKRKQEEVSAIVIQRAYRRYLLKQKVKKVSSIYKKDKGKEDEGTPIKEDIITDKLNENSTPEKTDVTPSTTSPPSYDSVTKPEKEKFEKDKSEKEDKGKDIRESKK

Compound	class of pH-dependence pattern (cluster analysis)	Ratio Reversibility (pH 6.0/7.3, cc 100 mM)	Ratio Tau Offset (pH 6.0/7.3, cc 100 mM)	Ratio Tau Onset (pH 6.0/7.3, cc 100 mM)	log Ratio App Aff (pH 6.0/7.3, cc 100 mM)	Ratio Reversibility (pH 6.0/8.6, cc 100 mM)	Ratio Tau Offset (pH 6.0/8.6, cc 100 mM)	Ratio Tau Onset (pH 6.0/8.6, cc 100 mM)	log Ratio App Aff (pH 6.0/8.6, cc 100 mM)	τoffset (pH 6.0)	τonset (pH 6.0)	Kd [1]	Ratio Reversibility (pH 7.3/8.6, cc 100 mM)	Ratio Tau Offset (pH 7.3/8.6, cc 100 mM)	τoffset (pH 7.3)	τonset (pH 7.3)	Kd [2]	τoffset (pH 8.6)	τonset (pH 8.6)	Kd [3]	also measured
Nc1c(Br)cc(Br)cc1CN[C@H]1CC[C@H](O)CC1 [ambroxol]	Class G	0.839	0.759	0.884	0.190	1.137	0.708	0.667	0.494	8.50 s	7.60 s	138 µM	1.355	0.933	11.20 s	8.60 s	88.7 µM	12.00 s	11.40 s	44.2 µM	Ratio Tau Onset (pH 7.3/8.6, cc 100 mM): 0.754; log Ratio App Aff (pH 7.3/8.6, cc 100 mM): 0.303; Reversibility (pH=6.0, cc 100 mM): 0.65; Kd [4]: 138 µM; Reversibility (pH=7.3, cc 100 mM): 0.78; Kd [5]: 88.7 µM; Reversibility (pH=8.6, cc 100 mM): 0.58; Kd [6]: 44.2 µM
CN(C)CCC=C1c2ccccc2CCc2ccccc21 [amitriptyline]	Class C									23.45 s	16.40 s	40.7 µM			19.66 s	15.10 s	25.6 µM	28.00 s	14.70 s	13.8 µM	Ratio Reversibility (pH 6.0/7.3, cc 30 mM): 1.364; Ratio Tau Offset (pH 6.0/7.3, cc 30 mM): 1.193; Ratio Tau Onset (pH 6.0/7.3, cc 30 mM): 1.086; log Ratio App Aff (pH 6.0/7.3, cc 30 mM): 0.202; Ratio Reversibility (pH 6.0/8.6, cc 30 mM): 5.190; Ratio Tau Offset (pH 6.0/8.6, cc 30 mM): 0.838; Ratio Tau Onset (pH 6.0/8.6, cc 30 mM): 1.116; log Ratio App Aff (pH 6.0/8.6, cc 30 mM): 0.469; Ratio Reversibility (pH 7.3/8.6, cc 30 mM): 3.806; Ratio Tau Offset (pH 7.3/8.6, cc 30 mM): 0.702; Ratio Tau Onset (pH 7.3/8.6, cc 30 mM): 1.027; log Ratio App Aff (pH 7.3/8.6, cc 30 mM): 0.267; Reversibility (pH=6.0, cc 30 mM): 0.74; Kd (pH=6.0, cc 30 mM, read-out: Apparent Affinity): 40.7 µM; Reversibility (pH=7.3, cc 30 mM): 0.55; Kd (pH=7.3, cc 30 mM, read-out: Apparent Affinity): 25.6 µM; Reversibility (pH=8.6, cc 30 mM): 0.14; Kd (pH=8.6, cc 30 mM, read-out: Apparent Affinity): 13.8 µM
CCCCN1CCCCC1C(=O)Nc1c(C)cccc1C (centres unmarked) [bupivacaine]	Class B	0.906	2.692	4.180	0.218	1.346	4.516	4.322	0.412	56.00 s	51.00 s	106 µM	1.485	1.677	20.80 s	12.20 s	64.2 µM	12.40 s	11.80 s	41 µM	effect of alkalic pH on onset/offset kinetics (in words): significant acceleration of both onset and offset; Ratio Tau Onset (pH 7.3/8.6, cc 100 mM): 1.034; log Ratio App Aff (pH 7.3/8.6, cc 100 mM): 0.194; Reversibility (pH=6.0, cc 100 mM): 0.64; Kd [4]: 106 µM; Reversibility (pH=7.3, cc 100 mM): 0.71; Kd [5]: 64.2 µM; Reversibility (pH=8.6, cc 100 mM): 0.48; Kd [6]: 41 µM
NC(=O)N1c2ccccc2C=Cc2ccccc21 [carbamazepine]	Class A									12.30 s	4.00 s	545 µM			10.01 s	5.00 s	581 µM	8.25 s	5.00 s	543 µM	Ratio Reversibility (pH 6.0/7.3, cc 300 mM): 0.728; Ratio Tau Offset (pH 6.0/7.3, cc 300 mM): 1.229; Ratio Tau Onset (pH 6.0/7.3, cc 300 mM): 0.800; log Ratio App Aff (pH 6.0/7.3, cc 300 mM): -0.028; Ratio Reversibility (pH 6.0/8.6, cc 300 mM): 0.955; Ratio Tau Offset (pH 6.0/8.6, cc 300 mM): 1.490; Ratio Tau Onset (pH 6.0/8.6, cc 300 mM): 0.800; log Ratio App Aff (pH 6.0/8.6, cc 300 mM): 0.00109; Ratio Reversibility (pH 7.3/8.6, cc 300 mM): 1.312; Ratio Tau Offset (pH 7.3/8.6, cc 300 mM): 1.212; Ratio Tau Onset (pH 7.3/8.6, cc 300 mM): 1.000; log Ratio App Aff (pH 7.3/8.6, cc 300 mM): 0.029; Reversibility (pH=6.0, cc 300 mM): 0.67; Kd (pH=6.0, cc 300 mM, read-out: Apparent Affinity): 545 µM; Reversibility (pH=7.3, cc 300 mM): 0.92; Kd (pH=7.3, cc 300 mM, read-out: Apparent Affinity): 581 µM; Reversibility (pH=8.6, cc 300 mM): 0.70; Kd (pH=8.6, cc 300 mM, read-out: Apparent Affinity): 543 µM
